Measurements taken from patent US20250313546A1, “NUCLEIC ACID BINDERS” (UNIVERSITY OF STRATHCLYDE, priority 2022, published 2025).
In brackets after ≈: the same amount, converted by molar mass. Like-named read-outs stand apart in the source and are kept apart here.

Columns and labels:
[1] = test system: Blastomyces dermatitidis; assay: Expanded set of filamentous fungi, MIC broth microdilution (CLSI); assay type: cell-based
[2] = test system: Rhizopus arrhizus; assay: as above; assay type: cell-based
[3] = test system: Candida parapsilosis; assay: Expanded set of yeasts, MIC broth microdilution (CLSI); assay type: cell-based; settings: MIC at 50% inhibition; for MIC50: Lodderomyces parapsilosis
[4] = test system: C. neoformans (F10025); settings: Cryptococcus neoformans, read-out: MIC99 C. neoformans
Procedure: (§2) The Minimum Inhibitory Concentration (MIC, at 99% inhibition) of the compounds was determined using the broth microdilution method as recommended by EUCAST (EUCAST Definitive Document E.DEF 9.3.2, Method for the determination of broth dilution minimum inhibitory concentrations of antifungal agents for conidia forming moulds and EUCAST Definitive Document E.DEF 7.3.2 Method for the determination of broth dilution minimum inhibitory concentrations of antifungal agents for yeasts).

[5] = test system: Paecilomyces variotii; assay: Expanded set of filamentous fungi, MIC broth microdilution (CLSI); assay type: cell-based; settings: isolate MYA-3630, MIC at 50% inhibition
[6] = test system: Fusarium solani; assay: as above; assay type: cell-based; settings: MIC at 50% inhibition
[7] = test system: Aspergillus flavus; assay: as above; assay type: cell-based; settings: MIC at 50% inhibition; for MIC50: Aspergillus flavus
[8] = test system: Fusarium oxysporum; assay: as above; assay type: cell-based; settings: MIC at 50% inhibition
[9] = test system: C. albicans (ATCC 90028); settings: Candida albicans, ATCC90028, read-out: MIC99 C. albicans
Procedure: as §2

[10] = test system: C. krusei; assay: Expanded set of yeasts, MIC broth microdilution (CLSI); assay type: cell-based; settings: Pichia kudriavzevii, ATCC6258; isolate ATCC 6258; MIC at 50% inhibition
[11] = test system: A. flavus (CBS 128.202); settings: Aspergillus flavus, CBS128, read-out: MIC99 A. flavus
[12] = test system: Aspergillus fumigatus; assay: Expanded set of filamentous fungi, MIC broth microdilution (CLSI); assay type: cell-based
[13] = test system: Candida auris (H.17.157); settings: Candidozyma auris, read-out: MIC99 Candida auris
[14] = test system: C. albicans; assay: Expanded set of yeasts, MIC broth microdilution (CLSI); assay type: cell-based; settings: MIC at 50% inhibition; for MIC50: Candida albicans
[15] = test system: C. glabrata; assay: as above; assay type: cell-based; settings: Nakaseomyces glabratus, MIC at 50% inhibition
[16] = test system: C. auris; assay: as above; assay type: cell-based; settings: MIC at 50% inhibition
[17] = test system: Scedosporium prolificans (F2746); settings: Lomentospora prolificans, read-out: MIC99 Scedosporium prolificans
[18] = test system: C. guilliiermondii; assay: Expanded set of yeasts, MIC broth microdilution (CLSI); assay type: cell-based; settings: MIC at 50% inhibition
[19] = test system: Enterococcus faecalis (ATCC 51299); assay: Antibacterial MIC, broth microdilution (CLSI); assay type: cell-based; settings: Enterococcus faecalis, ATCC51299; read-out: MIC80 E. faecalis
[20] = test system: PolyAU double stranded RNA; assay: Fluorescence intercalator displacement (FID) assay, SYBR-safe probe; settings: 20 μM compound, 30° C., lower % = stronger binding
How it was run: (§1)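 Probe displacement was measured at 30 °C in 1 mM phosphate pH 7.4 containing SybrSafe (12500-fold dilution), 3.76 ng/mL nucleic acid (salmon dsDNA or polyAU dsRNA) and 20 μM compound. Fluorescence loss is normalised between probe-only and probe-plus-nucleic-acid controls.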

[21] = test system: Genomic double stranded DNA (salmon); assay: as above; settings: 20 μM compound, 30° C., lower % = stronger binding
How it was run: as §1

`[H]/N=C(\CCNC(=O)c1cc(NC(=O)c2cc(NC(=O)c3ccc(C=Cc4ccc(N(C)C)cc4)nc3)cn2C)cn1C)NC` [Ia9, (E)-6-(4-(dimethylamino)styryl)-N-(5-((5-((3-imino-3-(methylamino)propyl)carbamoyl)-1-methyl-1H-pyrrol-3-yl)carbamoyl)-1-methyl-1H-pyrrol-3-yl)nicotinamide] gave an MIC50 ([1]; isolate BD1, MIC at 50% inhibition) of 1 to 8 µg/mL (≈ 1.68 to 13.4 µM), an MIC50 ([1]; isolate BD2, MIC at 50% inhibition) of 1 to 8 µg/mL (≈ 1.68 to 13.4 µM) and an MIC50 ([1]; isolate BD3, MIC at 50% inhibition) of 1 to 8 µg/mL (≈ 1.68 to 13.4 µM). The MIC50 ([2]; isolate 99-880, MIC at 50% inhibition) was 1 to 8 µg/mL (≈ 1.68 to 13.4 µM), the MIC50 ([2]; isolate 99-892, MIC at 50% inhibition) was 1 to 8 µg/mL (≈ 1.68 to 13.4 µM) and the MIC50 ([2]; isolate RA3, MIC at 50% inhibition) was 1 to 8 µg/mL (≈ 1.68 to 13.4 µM). For the same molecule, the MIC50 ([3]; ATCC22019, isolate ATCC 22019, read-out: MIC50 Candida parapsilosis) was 1 to 8 µg/mL (≈ 1.68 to 13.4 µM), the MIC50 ([3]; isolate CP1, read-out: MIC50 C. parapsilosis) was 1 to 8 µg/mL (≈ 1.68 to 13.4 µM) and the “MIC50 C. parapsilosis” value ([3]; isolate CP2) was “** (** means 1 μg/mL < MIC50 <= 8 μg/mL)”. The “MIC50 C. parapsilosis” value ([3]; isolate CP3) was “** (** means 1 μg/mL < MIC50 <= 8 μg/mL)”, the MIC99 [4] was under 5 µg/mL and the MIC50 [5] was 1 to 8 µg/mL (≈ 1.68 to 13.4 µM). The MIC50 ([6]; Fusarium solani, isolate F4) was at most 1 µg/mL, the “MIC50 Fusarium solani” value ([6]; isolate DI19-284) was “*** (*** means MIC50 <= 1 μg/mL)” and the MIC50 ([7]; ATCC204304, isolate ATCC 204304) was 1 to 8 µg/mL (≈ 1.68 to 13.4 µM). For the same molecule, the MIC50 ([7]; isolate Aflav2) was 1 to 8 µg/mL (≈ 1.68 to 13.4 µM), the “MIC50 Aspergillus flavus” value ([7]; isolate Aflav3) was “** (** means 1 μg/mL < MIC50 <= 8 μg/mL)” and the MIC50 ([8]; Fusarium oxysporum, isolate F2) was at most 1 µg/mL. The “MIC50 Fusarium oxysporum” value ([8]; isolate F3) was “*** (*** means MIC50 <= 1 μg/mL)”, the MIC99 [9] was 5 to 25 µg/mL (≈ 8.39 to 42 µM) and the MIC50 [10] was 1 to 8 µg/mL (≈ 1.68 to 13.4 µM). The MIC99 [11] was 5 to 25 µg/mL (≈ 8.39 to 42 µM), the MIC50 ([12]; isolate AF293, MIC at 50% inhibition) was 1 to 8 µg/mL (≈ 1.68 to 13.4 µM) and the MIC50 ([12]; isolate DI15-106, MIC at 50% inhibition) was 1 to 8 µg/mL (≈ 1.68 to 13.4 µM). It also gave an MIC50 ([12]; isolate DI15-116, MIC at 50% inhibition) of 1 to 8 µg/mL (≈ 1.68 to 13.4 µM), an MIC50 ([12]; isolate DI19-187, MIC at 50% inhibition) of 1 to 8 µg/mL (≈ 1.68 to 13.4 µM) and an MIC50 ([12]; isolate DI19-230, MIC at 50% inhibition) of 1 to 8 µg/mL (≈ 1.68 to 13.4 µM). The MIC50 ([12]; isolate DI19-231, MIC at 50% inhibition) was 1 to 8 µg/mL (≈ 1.68 to 13.4 µM), the MIC50 ([12]; isolate DI19-232, MIC at 50% inhibition) was 1 to 8 µg/mL (≈ 1.68 to 13.4 µM) and the MIC50 ([12]; isolate DI19-233, MIC at 50% inhibition) was 1 to 8 µg/mL (≈ 1.68 to 13.4 µM). The MIC50 ([12]; isolate DI19-234, MIC at 50% inhibition) was 1 to 8 µg/mL (≈ 1.68 to 13.4 µM), the MIC50 ([12]; isolate DI19-236, MIC at 50% inhibition) was 1 to 8 µg/mL (≈ 1.68 to 13.4 µM) and the MIC50 ([12]; isolate DI19-237, MIC at 50% inhibition) was 1 to 8 µg/mL (≈ 1.68 to 13.4 µM). It also gave an MIC50 ([12]; isolate DI20-95, MIC at 50% inhibition) of 1 to 8 µg/mL (≈ 1.68 to 13.4 µM), an MIC50 ([12]; isolate DI20-103, MIC at 50% inhibition) of 1 to 8 µg/mL (≈ 1.68 to 13.4 µM) and an MIC99 [13] of over 50 µg/mL. The MIC50 ([14]; isolate CA3) was 1 to 8 µg/mL (≈ 1.68 to 13.4 µM), the MIC50 ([14]; isolate SC5314) was 1 to 8 µg/mL (≈ 1.68 to 13.4 µM) and the “MIC50 C. albicans” value ([14]; isolate CA90028) was “** (** means 1 μg/mL < MIC50 <= 8 μg/mL)”. It also gave an MIC50 ([15]; isolate 05-62) of 1 to 8 µg/mL (≈ 1.68 to 13.4 µM), an MIC50 ([15]; isolate 05-761) of at most 1 µg/mL and an MIC50 ([15]; isolate CG3) of 1 to 8 µg/mL (≈ 1.68 to 13.4 µM). For the same molecule, the MIC50 ([16]; Candidozyma auris, isolate DI17-47) was 1 to 8 µg/mL (≈ 1.68 to 13.4 µM), the “MIC50 C. auris” value ([16]; isolate DI17-46) was “** (** means 1 μg/mL < MIC50 <= 8 μg/mL)” and the “MIC50 C. auris” value ([16]; isolate DI17-48) was “** (** means 1 μg/mL < MIC50 <= 8 μg/mL)”. The MIC99 [17] was 5 to 25 µg/mL (≈ 8.39 to 42 µM), the MIC50 ([18]; isolate Cgui1) was 1 to 8 µg/mL (≈ 1.68 to 13.4 µM) and the “MIC50 C. guilliiermondii” value ([18]; isolate Cgui2) was “** (** means 1 μg/mL < MIC50 <= 8 μg/mL)”. For the same molecule, the “MIC50 C. guilliiermondii” value ([18]; isolate Cgui3) was “** (** means 1 μg/mL < MIC50 <= 8 μg/mL)”, the MIC80 [19] was 25 to 100 µM (≈ 14.9 to 59.6 µg/mL) and the “% Normalised Fluorescence with polyAU RNA” value [20] was 19%. The “% Normalised Fluorescence with gDNA” value [21] was 13%.
